US6482851B1, “Synthesis of dysidiolide and uses thereof” (Sloan-Kettering Institute for Cancer Research, priority 1998, dated 2002)

Assays:
Cdk2 = Cdk2 kinase activity on immunoprecipitates from treated MCF7 cells; type: cell-based, human
Procedure: Effect of dysidiolide on the activity of Cdk2 and on the steady-state levels of Cdc25A and Cdc25C. MCF7 cells were treated for 2 or 4 hr with 0, 2 or 10 μM dysidiolide. A) The kinase activity of Cdk2 was assayed on immunoprecipitates using histone H1 as exogenous substrate. B) The steady-state levels of Cdc25 A and C were analyzed in total cell lysates with specific antibodies (Santa Cruz Biotechnology's sc097 and sc327 antibodies were used for detection of Cdc25 A and C, respectively).
Effect of a 24 hr treatment with 50 μM dysidiolide on the kinase activity of Cdk4, Cdk2 and Cdc2. Cdk were immunoprecipitated from MCF7 cell lysates obtained from cultures treated or not with dysidiolide for 24 hr. Histone H1 was used as substrate for Cdk2 and Cdc2, whereas GST-Rb was the substrate for Cdk4.
To further characterize the effects of dysidiolide on cell cycle control, experiments were conducted at the molecular level. As Cdc25s (A, B and C) are positive regulators of cyclin-dependent kinases (Cdk) (reviewed in Draetta and Eckstein, BBA 1332: M53-M63, 1997) inhibition of Cdc25 is expected to result in inhibition of Cdk activity. MCF7 cells were treated with 2 or 10 μM dysidiolide or with DMSO (controls) for 2 or 4 hr. Cell extracts were used to measure the steady-state levels of Cdc25 A and C, and Cdk activity. […]

[1] = tested on: PC3, DU145 and MCF7 cells; test: cell cycle distribution by DNA content histograms (FACS); type: cell-based, human
Procedure: Cells with 2n to 4n DNA content were distributed on a DNA histogram and estimations for the percentages of cells in G1(2n), S(2n<X<4N) and G2/M (4n) were calculated using Becton-Dickinson FACS analysis software.
A 20 mM stock solution of dysidiolide was prepared in dimethylsulfoxide (DMSO) and a pilot experiment was carried out to measure the effects of the drug on the viability (Trypan blue exclusion) and flow cytometric parameters of four human cancer cell lines: the prostate lines TSU-Pr1, PC3 and DU145, and the breast line, MCF7. Cultures were treated with 0, 2, 10 and 50 μM dysidiolide for 24 hr. Dysidiolide was cytotoxic to the four lines as evidenced by the loss of Trypan blue exclusion capability and by the appearance of sub-G1 fraction on flow cytometric (FACS) analysis (FIGS. 3 and 4A-D). […] (At 50 μM dysidiolide, the level of cell death was too high in TSU-Pr1 cells to fit a valid histogram (FIG. 5A)). These cell cycle changes are consistent with arrest prior to completion of the replicative (S) phase, or with cell death occurring preferentially in cells with a 4n DNA content (G2/M population).

[2] = tested on: MCF7 human breast cancer cells; test: BrdU pulse-chase S phase progression; type: cell-based
Procedure: Effect of 10 μM dysidiolide on cell cycle progression of S-phase MCF7 cells (BrdU-positive). MCF7 cultures were pulse-labeled with 10 μM BrdU for 30 min. Cultures were washed extensively with phosphate-buffered saline (PBS) solution and fresh media was added, supplemented or not with 10 μM dysidiolide. The final DMSO concentration of control and drug cultures was 0.05%. Cells were harvested at different times after the BrdU pulse and cells were stained for DNA content with propidium iodide, and for BrdU, with a monoclonal anti-BrdU antibody coupled to fluorescein. The progression of this group of cells through the cell cycle was followed by dual wavelength flow cytometry.
Effect of 50 μM dysidiolide on cell cycle progression of S-phase MCF7 cells. MCF7 cells were pulse-labeled for 30 min with BrdU, and chased for 24 hr in the presence or absence of 50 μM dysidiolide. BrdU versus DNA content plots are shown for cell cultures harvested just after the pulse (time 0, “0”), and after the chase with (“24+”) or without drug (“24−”)
To further analyze the cell cycle effects induced by dysidiolide, the effects of the drug on S phase progression were tested. For this purpose, a subset of cells was pulse-labeled with the thymidine analog, 5-bromodeoxyuridine (BrdU) for 30 min, and chased in the presence or absence of dysidiolide. The progression of this group of cells through the cell cycle was followed by flow cytometry, by analyzing the intensity of BrdU labeling and DNA content at two different wavelengths: red for propidium iodide stain (DNA content) and green for the detection of anti-BrdU antibodies coupled to fluorescein (Becton-Dickinson Immunocytometric Systems, San Jose, Calif.). The first experiment was conducted on MCF7 human breast cancer cells chased for varying time periods after a 30 min BrdU pulse, with or without 10 μM dysidiolide. After a 24 hr chase in the presence of the drug, fewer cells had reached G1 (FIG. 6). However, the effect was modest in intensity (approximately 45% less cells reached G1 in treated samples, compared with untreated controls) […]

## C=C(C)CCC[C@@]1(C)CCC[C@H]2C1=CC[C@H](C)[C@]2(C)C[C@H](O)C1=CC(=O)O[C@@H]1O (racemic) [dysidiolide]
Cdk2; 50 μM, 24 hr
  Cdk2 protein kinase activity: inhibition
Cdk2; 2 or 10 μM, 2 or 4 hr
  Cdk2 activity: no significant changes
[1]; MCF7 breast cancer cell line
  cell cycle distribution: loss of the G2/M peak and accumulation of cells in G1
[1]; PC3, DU145 and MCF7 cells at higher doses of drug, 24 hr
  cell cycle distribution: loss of a G2/M (4 n peak)
[2]; 10 μM, 24 hr chase after 30 min BrdU pulse
  less cells reached G1 compared with untreated controls: approximately 45%
[2]; 50 μM, 24 hr chase
  cell cycle progression of BrdU-positive cells onto the next G1 phase: prevented cell cycle progression
[2]; 50 μM, 24 hr chase, BrdU-positive cells
  cells with intermediate DNA content (S phase), forced fit: approximately 90%
